Laboratory results published in patent US20100286150A1, “LEVOSIMENDAN FOR USE IN TREATING CHRONIC VALVULAR DISEASE” (priority 2008, published 2010).

System: dogs diagnosed with chronic valvular disease (CVD)
Experiment: Double-blind placebo-controlled study of long-term efficacy, safety and survival in dogs with chronic valvular disease
Format: in vivo
Settings: for Owner-reported symptom score (mean ± SD): score 0 (best) to 18 (worst), 0.05 mg/kg orally twice a day
Protocol: A double-blind placebo-controlled study was conducted for evaluating the long-term efficacy and safety of levosimendan and its effect on long-term survival in dogs diagnosed with chronic valvular disease (CVD). Dogs were randomised to receive either 0.05 mg/kg of levosimendan (n=40) or placebo (n=40) orally twice a day for 5 months. All dogs were allowed to receive their background therapy (ACE-inhibitors, diuretics, beta-blockers and/or digoxin). Quality of life, symptoms of CVD, safety and mortality assessment were conducted throughout the study.
Improvement in quality of life was determined by using a composite owner-reported symptom score (ORSS). ORSS is a composite variable that was calculated by summing scores for appetite, intolerance to exercise, daytime cough, nocturnal cough, and nocturnal restlessness. The owner-reported symptom score could range from 0 (best possible) to 18 (worst possible).

[1] = 0.05 mg/kg orally twice a day for 5 months, added to standard therapy, vs placebo, FIG. 1

**Q.** Which safety (0.05 mg/kg orally twice a day for 5 months in dogs with CVD) does the source give for `C[C@@H]1CC(=O)NN=C1c1ccc(NN=C(C#N)C#N)cc1` [levosimendan, (−)-enantiomer of [[4-(1,4,5,6-tetrahydro-4-methyl-6-oxo-3-pyridazinyl)phenyl]hydrazono]propanedinitrile] here?
**A.** The safety was “No significant safety concerns”.

**Q.** And the mortality [1]?
**A.** The mortality was “significantly reduced mortality”.

**Q.** What about the survival [1] of the same compound?
**A.** The survival was “prolonged survival”.

**Q.** What about the “quality of life over time compared to baseline assessments (0 months)” value (owner-reported symptom score, 0.05 mg/kg orally twice a day for 5 months) of the same compound?
**A.** The value was “significantly improved”.

**Q.** What about the “Owner-reported symptom score (mean ± SD)” value (time 0 months (baseline)) of the same compound?
**A.** Its value is 5.6 ± 2.4.

**Q.** What about the “Owner-reported symptom score (mean ± SD)” value (time 1 month) of the same compound?
**A.** Its value is 4.1 ± 3.2.

**Q.** What about the “Owner-reported symptom score (mean ± SD)” value (time 3 months) of the same compound?
**A.** Its value is 4.4 ± 4.1.

**Q.** And the “Owner-reported symptom score (mean ± SD)” value (time 5 months)?
**A.** Its value is 4.4 ± 3.4.
